Counter-ions that a name gives are not always drawn.
Test system: SU-DHL-4 cells
Experiment: Inhibitory effect on cell viability in SU-DHL-4 cell line (Test Example 1)
Type: cell-based, human
Conditions: Homo sapiens; SU-DHL-4 cells, 72 hours, Cell Counting Kit-8; concentration showing 90% inhibition of cell viability; read-out: SU-DHL-4 Cell Viability Inhibition Rate IC90
Description: SU-DHL-4 cells (Code No. ACC 495, Deutsche Sammlung von Mikroorganismen and Zellkulturen GmbH; DSMZ) were cultured at 37° C. using a carbon dioxide incubator (95% air, 5% CO2) in RPMI1640 medium (Code No. 11875-093, Thermo Fisher Scientific) in which inactivated fetal bovine serum (FBS: Code No. 10099-148, Thermo Fisher Scientific) in an amount to give a final concentration of 10 vol % and penicillin/streptomycin solution (PS: […] The cells were passaged twice a week at a volume of 20-40 mL so as to maintain a cell concentration of 1×10^6 cells/mL or less. […] After seeding, the cells were precultured at 37° C. in a carbon dioxide gas incubator for 18 to 25 hours. […] At this time, the final concentration of DMSO was adjusted to be 0.1 vol %. After adding the test compound, the cells were cultured at 37° C. in a carbon dioxide gas incubator for 72 hours. Next, 0.020 mL of Cell Counting Kit-8 (Code No. CK04, DOJINDO) solution diluted 2-fold or 4-fold with phosphate buffered saline (PBS) was added to each well. Color reaction was carried out in a carbon dioxide gas incubator at 37° C. for 2 to 3 hours, and the absorbance at a wavelength of 450 nm was measured using SpectraMax 340PC (Molecular Devices). […] Absorbance of a well containing test compound • B: Absorbance of a well without addition of cells • C: Absorbance of a well without addition of test compound

SMILES	IC90 [nM]
CCC(=O)N1c2ccccc2[C@H](Nc2ccc(NC(=O)CCCC(=O)NC34CCC(NCc5cc(O)cc(-c6c(C)noc6C)c5)(CC3)CC4)cc2)C[C@@H]1C [Compound 17c, N^1-(4-((3-(3,5-Dimethylisoxazol-4-yl)-5-hydroxybenzyl)amino)bicyclo[2.2.2]octan-1-yl)-N5-(4-(((2S,4R)-2-methyl-1-propionyl-1,2,3,4-tetrahydroquinolin-4-yl)amino)phenyl)glutaramide]	2.05
CCC(=O)N1c2ccccc2[C@H](Nc2ccc(NC(=O)C3CN(C(=O)c4ccc(OCCN5CCN(C)C(=O)[C@H]5C)cc4)C3)cc2)C[C@@H]1C [Compound 16a, 1-(4-(2-((R)-2,4-Dimethyl-3-oxopiperazin-1-yl)ethoxy)benzoyl)-N-(4-(((2S,4R)-2-methyl-1-propionyl-1,2,3,4-tetrahydroquinolin-4-yl)amino)phenyl)azetidine-3-carboxamide]	11.1
CCC(=O)N1c2ccccc2[C@H](Nc2ccc(-n3cc(CNC(=O)c4cccc(Oc5ccccc5-c5cn(C)c(=O)cc5OC)c4)nn3)cc2)C[C@@H]1C [Compound 17d, 3-(2-(4-Methoxy-1-methyl-6-oxo-1,6-dihydropyridin-3-yl)phenoxy)-N-((1-(4-(((2S,4R)-2-methyl-1-propionyl-1,2,3,4-tetrahydroquinolin-4-yl)amino)phenyl)-1H-1,2,3-triazol-4-yl)methyl)benzamide]	0.13
CCC(=O)N1c2ccccc2[C@H](Nc2ccc(C(=O)NCc3nnc(C4CCN(Cc5cc(O)cc(-c6c(C)noc6C)c5)CC4)o3)cc2)C[C@@H]1C [Compound 17m, N-((5-(1-(3-(3,5-Dimethylisoxazol-4-yl)-5-hydroxybenzyl)piperidin-4-yl)-1,3,4-oxadiazol-2-yl)methyl)-4-(((2S,4R)-2-methyl-1-propionyl-1,2,3,4-tetrahydroquinolin-4-yl)amino)benzamide]	74.1
CCC(=O)N1c2ccccc2[C@H](Nc2ccc(-c3nnc(CNC(=O)c4ccc(OCCN5CCN(C)C(=O)[C@H]5C)cc4)o3)cc2)C[C@@H]1C [Compound 16b, 4-(2-((R)-2,4-Dimethyl-3-oxopiperazin-1-yl)ethoxy)-N-((5-(4-(((2S,4R)-2-methyl-1-propionyl-1,2,3,4-tetrahydroquinolin-4-yl)amino)phenyl)-1,3,4-oxadiazol-2-yl)methyl)benzamide]	2.05
CCC(=O)N1c2ccccc2[C@H](Nc2ccc(-n3cc(CCNC(=O)C4CCN(Cc5cc(O)cc(-c6c(C)noc6C)c5)CC4)nn3)cc2)C[C@@H]1C [Compound 17l, 1-(3-(3,5-Dimethylisoxazol-4-yl)-5-hydroxybenzyl)-N-(2-(1-(4-(((2S,4R)-2-methyl-1-propionyl-1,2,3,4-tetrahydroquinolin-4-yl)amino)phenyl)-1H-1,2,3-triazol-4-yl)ethyl)piperidine-4-carboxamide formate]	1.89
CCC(=O)N1c2ccccc2[C@H](Nc2ccc(NC(=O)C3CN(C(=O)c4ccc(C5CCN(c6ccc7nnc(Cl)n7n6)CC5)cc4)C3)cc2)C[C@@H]1C [Compound 17p, 1-(4-(1-(3-Chloro-[1,2,4]triazolo[4,3-b]pyridazin-6-yl)piperidin-4-yl)benzoyl)-N-(4-(((2S,4R)-2-methyl-1-propionyl-1,2,3,4-tetrahydroquinolin-4-yl)amino)phenyl)azetidine-3-carboxamide]	0.35

Same assay, conditions: SU-DHL-4 cells, 72 hours, Cell Counting Kit-8; concentration showing 90% inhibition of cell viability; read-out: SU-DHL-4 Cell Viability Inhibition Rate IC90

SMILES	IC90 [nM]
CCC(=O)N1c2ccccc2[C@H](Nc2ccc(NC(=O)CCCC(=O)NC3CCCN(Cc4ccc(NS(=O)(=O)CC)cc4-c4cn(C)c(=O)cc4OC)C3)cc2)C[C@@H]1C (stereo partly drawn) [Compound 16f, N^1-(1-(4-(Ethylsulfonamide)-2-(4-methoxy-1-methyl-6-oxo-1,6-dihydropyridin-3-yl)benzyl)piperidin-3-yl)-N5-(4-(((2S,4R)-2-methyl-1-propionyl-1,2,3,4-tetrahydroquinolin-4-yl)amino)phenyl)glutaramide]	24.6
CCC(=O)N1c2ccccc2[C@H](Nc2ccc(-n3cc(CNC(=O)C4CCC(N[C@@H]5C[C@H](C)N(C(=O)CC)c6ccccc65)CC4)nn3)cc2)C[C@@H]1C (relative stereo) [Compound 8l, (1R,4R)-4-(((2S*,4R*)-2-Methyl-1-propionyl-1,2,3,4-tetrahydroquinolin-4-yl)amino)-N-((1-(4-(((2S,4R)-2-methyl-1-propionyl-1,2,3,4-tetrahydroquinolin-4-yl)amino)phenyl)-1H-1,2,3-triazol-4-yl)methyl)cyclohexane-1-carboxamide]	0.04
CCC(=O)N1c2ccccc2[C@H](Nc2ccc(-n3cc(CNC(=O)c4cccc(Oc5ccc(NS(=O)(=O)CC)cc5-c5cn(C)c(=O)cc5OC)c4)nn3)cc2)C[C@@H]1C [Compound 16n, 3-(4-(Ethylsulfonamide)-2-(4-methoxy-1-methyl-6-oxo-1,6-dihydropyridin-3-yl)phenoxy)-N-((1-(4-(((2S,4R)-2-methyl-1-propionyl-1,2,3,4-tetrahydroquinolin-4-yl)amino)phenyl)-1H-1,2,3-triazol-4-yl)methyl)benzamide]	0.48
CCC(=O)N1c2ccccc2[C@H](Nc2ccc(C(=O)NCC(=O)CNC(=O)C3CCC(N[C@@H]4C[C@H](C)N(C(=O)CC)c5ccccc54)CC3)cc2)C[C@@H]1C (relative stereo) [Compound 7r, 4-(((2S,4R)-2-Methyl-1-propionyl-1,2,3,4-tetrahydroquinolin-4-yl)amino)-N-(3-((1R,4r)-4-(((2S*,4R*)-2-methyl-1-propionyl-1,2,3,4-tetrahydroquinolin-4-yl)amino)cyclohexane-1-carboxamide)-2-oxopropyl)benzamide]	0.38
CCC(=O)N1c2ccccc2[C@H](Nc2ccc(C(=O)NCCNC(=O)c3ccc(C4=N[C@@H](CC(=O)OC(C)(C)C)c5nnc(C)n5-c5sc(C)c(C)c54)cc3)cc2)C[C@@H]1C [Compound 1o, tert-Butyl 2-[(S)-2,3,9-trimethyl-4-(4-{[2-(4-{[(2S,4R)-2-methyl-1-propionyl-1,2,3,4-tetrahydroquinolin-4-yl]amino}benzamide)ethyl]carbamoyl}phenyl)-6H-thieno[3,2-f][1,2,4]triazolo[4,3-a][1,4]diazepin-6-yl]acetate]	3.18
CCC(=O)N1c2ccccc2[C@H](Nc2ccc(C(=O)NCCS(=O)(=O)NC3CCC(N[C@@H]4C[C@H](C)N(C(=O)CC)c5ccccc54)CC3)cc2)C[C@@H]1C (relative stereo) [Compound 9a, 4-(((2S,4R)-2-Methyl-1-propionyl-1,2,3,4-tetrahydroquinolin-4-yl)amino)-N-(2-(N-((1R,4R)-4-(((2S*,4R*)-2-methyl-1-propionyl-1,2,3,4-tetrahydroquinolin-4-yl)amino)cyclohexyl)sulfamoyl)ethyl)benzamide]	1.68
CCC(=O)N1c2ccccc2[C@H](Nc2ccc(-c3cnn(CC(=O)NC4CCC(N[C@@H]5C[C@H](C)N(C(=O)CC)c6ccccc65)CC4)c3)cc2)C[C@@H]1C (relative stereo) [Compound 9b, N-((1R,4R)-4-(((2S*,4R*)-2-Methyl-1-propionyl-1,2,3,4-tetrahydroquinolin-4-yl)amino)cyclohexyl)-2-(4-(4-(((2S,4R)-2-methyl-1-propionyl-1,2,3,4-tetrahydroquinolin-4-yl)amino)phenyl)-1H-pyrazol-1-yl)acetamide]	3.18
CCC(=O)N1c2ccccc2[C@H](Nc2ccc(-c3cn4c(n3)CN(C(=O)C3CCC(N[C@@H]5C[C@H](C)N(C(=O)CC)c6ccccc65)CC3)CC4)cc2)C[C@@H]1C (relative stereo) [Compound 7b, 1-((2S*,4R*)-2-Methyl-4-(((1R,4r)-4-(2-(4-(((2S,4R)-2-methyl-1-propionyl-1,2,3,4-tetrahydroquinolin-4-yl)amino)phenyl)-5,6,7,8-tetrahydroimidazo[1,2-a]pyrazine-7-carbonyl)cyclohexyl)amino)-3,4-dihydroquinolin-1(2H)-yl)propan-1-one]	1.51
CCC(=O)N1c2ccccc2[C@H](Nc2ccc(C(=O)NCC(=O)CNC(=O)c3ccc(C4=NCc5nnc(C)n5-c5sc(C)c(C)c54)cc3)cc2)C[C@@H]1C [Compound 14l, 4-(((2S,4R)-2-Methyl-1-propionyl-1,2,3,4-tetrahydroquinolin-4-yl)amino)-N-(2-oxo-3-(4-(2,3,9-trimethyl-6H-thieno[3,2-f][1,2,4]triazolo[4,3-a][1,4]diazepin-4-yl)benzamide)propyl)benzamide]	0.6
CCC(=O)N1c2ccccc2[C@H](Nc2ccc(NC(=O)NCC(=O)NC3CCC(N[C@@H]4C[C@H](C)N(C(=O)CC)c5ccccc54)CC3)cc2)C[C@@H]1C (relative stereo) [Compound 9c, N-((1R,4R)-4-(((2S*,4R*)-2-Methyl-1-propionyl-1,2,3,4-tetrahydroquinolin-4-yl)amino)cyclohexyl)-2-(3-(4-(((2S,4R)-2-methyl-1-propionyl-1,2,3,4-tetrahydroquinolin-4-yl)amino)phenyl)ureido)acetamide]	12.4
